What follows are compounds tested against T1, ΔF508-CFTR (Homo sapiens, UniProt P13569, DEL508-508) (assay: Membrane potential optical assay (FRET voltage-sensor dyes, VIPR), identification of potentiator compounds). Settings: Table 3; assay not given; read-out: % Activity (% Efficacy, relative efficacy).
T1 construct: expressed in transfected cells
Format: cell-based
Procedure, shortened: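 Potentiator screen measured membrane potential via FRET between CC2-DMPE donor and DiSBAC2(3), read on VIPR II. Compound went in with the first addition of chloride-free gluconate bath; cells were ΔF508-CFTR-expressing NIH3T3 mouse fibroblasts, temperature-corrected at 27 °C for 24 h.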

T1 sequence (P13569 with tags, fused parts or gaps DEL508-508): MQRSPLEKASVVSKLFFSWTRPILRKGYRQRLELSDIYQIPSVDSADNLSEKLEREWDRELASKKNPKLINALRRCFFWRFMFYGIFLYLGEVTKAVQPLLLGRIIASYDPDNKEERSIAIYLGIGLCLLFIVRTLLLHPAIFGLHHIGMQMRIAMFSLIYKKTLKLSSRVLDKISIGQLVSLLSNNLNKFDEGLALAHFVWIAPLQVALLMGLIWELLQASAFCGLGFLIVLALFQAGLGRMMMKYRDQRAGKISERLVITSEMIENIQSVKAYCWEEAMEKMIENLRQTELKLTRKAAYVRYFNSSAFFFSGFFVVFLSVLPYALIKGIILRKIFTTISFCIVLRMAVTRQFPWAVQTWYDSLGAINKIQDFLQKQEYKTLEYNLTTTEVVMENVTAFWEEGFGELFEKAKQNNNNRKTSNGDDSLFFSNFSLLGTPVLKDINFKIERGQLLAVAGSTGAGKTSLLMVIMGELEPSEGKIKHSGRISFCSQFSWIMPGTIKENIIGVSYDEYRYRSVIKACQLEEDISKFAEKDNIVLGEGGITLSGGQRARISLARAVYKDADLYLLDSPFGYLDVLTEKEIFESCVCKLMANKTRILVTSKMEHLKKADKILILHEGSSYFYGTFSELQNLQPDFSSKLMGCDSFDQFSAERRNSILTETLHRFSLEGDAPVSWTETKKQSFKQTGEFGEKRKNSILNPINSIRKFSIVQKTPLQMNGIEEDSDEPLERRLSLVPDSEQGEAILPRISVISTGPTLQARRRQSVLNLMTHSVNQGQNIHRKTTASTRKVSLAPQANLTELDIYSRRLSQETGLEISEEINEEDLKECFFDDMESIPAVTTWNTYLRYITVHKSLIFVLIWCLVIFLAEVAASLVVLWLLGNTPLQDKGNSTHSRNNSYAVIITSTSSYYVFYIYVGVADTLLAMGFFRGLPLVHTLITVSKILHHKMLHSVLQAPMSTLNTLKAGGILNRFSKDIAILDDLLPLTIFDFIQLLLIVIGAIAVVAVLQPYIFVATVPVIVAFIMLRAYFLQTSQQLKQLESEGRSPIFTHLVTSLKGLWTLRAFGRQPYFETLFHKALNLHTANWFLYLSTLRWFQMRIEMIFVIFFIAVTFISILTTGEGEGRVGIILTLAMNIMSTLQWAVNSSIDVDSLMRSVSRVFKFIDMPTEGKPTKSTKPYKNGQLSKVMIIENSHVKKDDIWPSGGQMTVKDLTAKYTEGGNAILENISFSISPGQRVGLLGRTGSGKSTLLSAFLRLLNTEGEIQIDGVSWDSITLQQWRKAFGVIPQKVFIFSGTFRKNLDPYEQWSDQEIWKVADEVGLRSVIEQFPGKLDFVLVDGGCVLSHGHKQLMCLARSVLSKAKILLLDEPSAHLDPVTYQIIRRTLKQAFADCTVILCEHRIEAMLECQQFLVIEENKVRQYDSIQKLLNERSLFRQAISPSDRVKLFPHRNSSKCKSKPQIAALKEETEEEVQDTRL

Emax	Compound
25 to 100%	CC(C)(C)c1cc2cc[nH]c2cc1NC(=O)c1c[nH]c2cc(F)c(F)cc2c1=O [Compound 646, 6,7-difluoro-4-oxo-N-(5-tert-butyl-1H-indol-6-yl)-1H-quinoline-3-carboxamide]
25 to 100%	O=C(Nc1ccc2cc(C(F)(F)F)[nH]c2c1)c1c[nH]c2ccccc2c1=O [Compound 537, 4-oxo-N-[2-(trifluoromethyl)-1H-indol-6-yl]-1H-quinoline-3-carboxamide]
25 to 100%	O=C(Nc1ccccc1OCc1ccccc1)c1c[nH]c2ccccc2c1=O [Compound 240, N-(2-benzyloxyphenyl)-4-oxo-1H-quinoline-3-carboxamide]
25 to 100%	CC(C)(C)c1cc2cc[nH]c2cc1NC(=O)c1c[nH]c2ccc(O)cc2c1=O [Compound 679, 6-hydroxy-4-oxo-N-(5-tert-butyl-1H-indol-6-yl)-1H-quinoline-3-carboxamide]
< 25%	O=C(Nc1ccc(F)cn1)c1c[nH]c2ccccc2c1=O [Compound 477, N-(5-fluoro-2-pyridyl)-4-oxo-1H-quinoline-3-carboxamide]
< 25%	O=C(Nc1cnccn1)c1c[nH]c2ccccc2c1=O [Compound 219, 4-oxo-N-pyrazin-2-yl-1H-quinoline-3-carboxamide]
25 to 100%	O=C(Nc1ccc2cc[nH]c2c1)c1cnc2ccc(F)cc2c1O [Compound 345, 6-fluoro-4-hydroxy-N-(1H-indol-6-yl)quinoline-3-carboxamide]
25 to 100%	O=C(Nc1cc2c(cc1O)CCCC2)c1c[nH]c2ccccc2c1=O [Compound 56, 1,4-dihydro-N-(1,2,3,4-tetrahydro-6-hydroxynaphthalen-7-yl)-4-oxoquinoline-3-carboxamide]
25 to 100%	CC(C)c1ccc(NC(=O)c2c[nH]c3ccccc3c2=O)cn1 [Compound 235, N-(6-isopropyl-3-pyridyl)-4-oxo-1H-quinoline-3-carboxamide]
25 to 100%	O=C(Nc1cccc(Cl)c1)c1c[nH]c2ccccc2c1=O [Compound 370, N-(3-chlorophenyl)-4-oxo-1H-quinoline-3-carboxamide]
25 to 100%	O=C(Nc1ccccc1N1CCN(C(=O)c2ccccc2)CC1)c1c[nH]c2ccccc2c1=O [Compound 321, N-[2-(4-benzoylpiperazin-1-yl)phenyl]-4-oxo-1H-quinoline-3-carboxamide]
> 100%	COc1cc2c(=O)c(C(=O)Nc3cc(O)c(C(C)(C)C)cc3C(C)(C)C)c[nH]c2cc1F [Compound 709, 7-fluoro-N-(5-hydroxy-2,4-ditert-butyl-phenyl)-6-methoxy-4-oxo-1H-quinoline-3-carboxamide]
25 to 100%	CC(C)(C)OC(=O)NCCc1c[nH]c2cc(NC(=O)c3c[nH]c4ccccc4c3=O)ccc12 [Compound 352, 2-[6-[(4-oxo-1H-quinolin-3-yl)carbonylamino]-1H-indol-3-yl]ethylaminoformic acid tert-butyl ester]
25 to 100%	COc1ccc(Oc2ccc(C(F)(F)F)cc2NC(=O)c2c[nH]c3ccccc3c2=O)cc1 [Compound 205, N-[2-(4-methoxyphenoxy)-5-(trifluoromethyl)phenyl]-4-oxo-1H-quinoline-3-carboxamide]
25 to 100%	CCC(C)c1ccccc1NC(=O)c1c[nH]c2ccccc2c1=O (stereo not drawn) [Compound 142, 4-oxo-N-(2-sec-butylphenyl)-1H-quinoline-3-carboxamide]
25 to 100%	Cc1cccc(NC(=O)c2c[nH]c3ccccc3c2=O)c1C [Compound 61, N-(2,3-dimethylphenyl)-4-oxo-1H-quinoline-3-carboxamide]
25 to 100%	Cc1cccc2[nH]cc(C(=O)Nc3ccc(N4CCCC(C)C4)cc3C(F)(F)F)c(=O)c12 (stereo not drawn) [Compound 643, 5-methyl-N-[4-(3-methyl-1-piperidyl)-2-(trifluoromethyl)phenyl]-4-oxo-1H-quinoline-3-carboxamide]
< 25%	COc1nc(NC(=O)c2c[nH]c3ccccc3c2=O)ccc1C(F)(F)F [Compound 571, N-[6-methoxy-5-(trifluoromethyl)-2-pyridyl]-4-oxo-1H-quinoline-3-carboxamide]
25 to 100%	CC(C)COC(=O)NCC(C)(C)c1ccc(NC(=O)c2c[nH]c3ccccc3c2=O)cc1 [Compound 251, [2-methyl-2-[4-[(4-oxo-1H-quinolin-3-yl)carbonylamino]phenyl]-propyl]aminoformic acid isobutyl ester]
25 to 100%	Cc1ccccc1NC(=O)c1c[nH]c2ccccc2c1=O [Compound 459, N-(o-tolyl)-4-oxo-1H-quinoline-3-carboxamide]
25 to 100%	CN(C)[C@H]1CCN(c2ccc(NC(=O)c3c[nH]c4ccccc4c3=O)c(C(F)(F)F)c2)C1 [Compound 513, (S)-N-(4-(3-(dimethylamino)pyrrolidin-1-yl)-2-(trifluoromethyl)phenyl)-4-oxo-1,4-dihydroquinoline-3-carboxamide]

Emax	Compound
25 to 100%	CC(C)c1cc(C(F)(F)F)c(NC(=O)c2c[nH]c3ccccc3c2=O)cc1OCc1ccccc1 [Compound 570, N-[5-benzyloxy-4-isopropyl-2-(trifluoromethyl)phenyl]-4-oxo-1H-quinoline-3-carboxamide]
25 to 100%	O=C(Nc1cc2[nH]ccc2cc1F)c1c[nH]c2ccc(F)cc2c1=O [Compound 254, 6-fluoro-N-(5-fluoro-1H-indol-6-yl)-4-oxo-1H-quinoline-3-carboxamide]
< 25%	COc1ccc(NC(=O)c2c[nH]c3ccccc3c2=O)cc1OC [Compound 122, N-(3,4-dimethoxyphenyl)-4-oxo-1H-quinoline-3-carboxamide]
25 to 100%	COc1ccc2c(=O)c(C(=O)Nc3cc(O)c(C(C)(C)C)cc3C(C)(C)C)c[nH]c2c1 [Compound 583, N-(5-hydroxy-2,4-ditert-butyl-phenyl)-7-methoxy-4-oxo-1H-quinoline-3-carboxamide]
25 to 100%	CC(C)(C)c1cc(F)c(NC(=O)c2c[nH]c3cc(F)c(F)cc3c2=O)cc1O [Compound 486, 6,7-difluoro-N-(2-fluoro-5-hydroxy-4-tert-butyl-phenyl)-4-oxo-1H-quinoline-3-carboxamide]
25 to 100%	CC(C)(C)c1cc(C(C)(C)C)c(NC(=O)c2c[nH]c3cc(O)ccc3c2=O)cc1O [Compound 652, 7-hydroxy-N-(5-hydroxy-2,4-ditert-butyl-phenyl)-4-oxo-1H-quinoline-3-carboxamide]
25 to 100%	Cc1cccc2[nH]cc(C(=O)Nc3ccc(OC(C)C)c(O)c3)c(=O)c12 [Compound 701, N-(3-hydroxy-4-isopropoxy-phenyl)-5-methyl-4-oxo-1H-quinoline-3-carboxamide]
25 to 100%	CC(C)n1cc(C(=O)Nc2ccccc2)c(=O)c2ccccc21 [Compound 29, 1-isopropyl-4-oxo-N-phenyl-1H-quinoline-3-carboxamide]
25 to 100%	Cc1cccc(C(C)C)c1NC(=O)c1c[nH]c2ccccc2c1=O [Compound 430, N-(2-isopropyl-6-methyl-phenyl)-4-oxo-1H-quinoline-3-carboxamide]
25 to 100%	CC(C)(C)c1cc2cc[nH]c2cc1NC(=O)c1c[nH]c2cccc(O)c2c1=O [Compound 500, 5-hydroxy-4-oxo-N-(5-tert-butyl-1H-indol-6-yl)-1H-quinoline-3-carboxamide]
25 to 100%	CC(C)(C)OC(=O)Nc1ccc(NC(=O)c2c[nH]c3ccccc3c2=O)c(C(F)(F)F)c1 [Compound 600, tert-butyl [[4-[(4-oxo-1H-quinolin-3-yl)carbonylamino]-3-(trifluoromethyl)phenyl]amino]formate]
25 to 100%	O=C(Nc1cc(N2CCCCC2)cc(C(F)(F)F)c1)c1c[nH]c2ccccc2c1=O [Compound 488, 4-oxo-N-[3-(1-piperidyl)-5-(trifluoromethyl)phenyl]-1H-quinoline-3-carboxamide]
25 to 100%	Cc1cccc(-c2ccccc2NC(=O)c2c[nH]c3ccccc3c2=O)c1 [Compound 52, N-[2-(m-tolyl)phenyl]-4-oxo-1H-quinoline-3-carboxamide]
25 to 100%	CC(=O)Nc1cc(NC(=O)c2c[nH]c3ccccc3c2=O)cc(C(F)(F)F)c1 [Compound 379, N-[3-acetylamino-5-(trifluoromethyl)phenyl]-4-oxo-1H-quinoline-3-carboxamide]
25 to 100%	Cc1ccc2[nH]cc(C(=O)Nc3ccc(N4CCCC4C)cc3C(F)(F)F)c(=O)c2c1 (stereo not drawn) [Compound 503, 6-methyl-N-[4-(2-methylpyrrolidin-1-yl)-2-(trifluoromethyl)phenyl]-4-oxo-1H-quinoline-3-carboxamide]
25 to 100%	CCc1ccc(Cl)c(CC)c1NC(=O)c1c[nH]c2ccccc2c1=O [Compound 91, N-(3-chloro-2,6-diethyl-phenyl)-4-oxo-1H-quinoline-3-carboxamide]
25 to 100%	Cc1cccc2[nH]cc(C(=O)Nc3ccc(N4CCC[C@H]4C)cc3C(F)(F)F)c(=O)c12 [Compound 697, (R)-5-methyl-N-(4-(2-methylpyrrolidin-1-yl)-2-(trifluoromethyl)phenyl)-4-oxo-1,4-dihydroquinoline-3-carboxamide]
< 25%	Cc1cccc2c(=O)c(C(=O)Nc3cc(O)c(C(C)(C)C)cc3C(C)(C)C)c[nH]c12 [Compound 621, N-(5-hydroxy-2,4-ditert-butyl-phenyl)-8-methyl-4-oxo-1H-quinoline-3-carboxamide]
25 to 100%	Cc1ccc(C(F)(F)F)cc1NC(=O)c1c[nH]c2cccc(O)c2c1=O [Compound 676, 5-hydroxy-N-[2-methyl-5-(trifluoromethyl)phenyl]-4-oxo-1H-quinoline-3-carboxamide]
25 to 100%	CC(=O)c1ccccc1NC(=O)c1c[nH]c2ccccc2c1=O [Compound 365, N-(2-acetylphenyl)-4-oxo-1H-quinoline-3-carboxamide]
< 25%	O=C(Nc1cccn2ncnc12)c1c[nH]c2ccccc2c1=O [Compound 146, 4-oxo-N-(1,7,9-triazabicyclo[4.3.0]nona-2,4,6,8-tetraen-5-yl)-1H-quinoline-3-carboxamide]
